The values that follow are results of earlier work, collected in patent US20040224037A1, “Devastating treatment against hiv/aids with capsaicin” (priority 2003, published 2004).

Ends that are not written are not given here.

The subject of data set [1] is guinea pig peritoneal macrophages.

Regarding “arg-pro-lys-pro-gln-gln-phe-phe-gly-leu-met-nh2 (RPKPQQFFGLM-NH2; UniProt P20366 58-68, looked up) [Substance p (sp), undecapeptide neuropeptide]”, the phagocytosis result in the data set with macrophages of mice and in the data set with human leucocytes was “stimulates phagocytosis” in each case. For the same substance, the “macrophage activation, liberation of reactive oxygen species” value in data set [1] is reported as “activated such macrophages”.
